From patent publication US12037336B2, “Compounds with activity as inhibitors of the epithelial sodium channel (ENaC)” (Enterprise Therapeutics Limited, priority 2018, dated 2024)
Counter-ions that a name gives are not always drawn.

Target: T1, ENaC (Homo sapiens, UniProt P37088+P51168+P51170)
T1 construct: host or cells: primary human bronchial epithelial cells (HBECs), differentiated at an air-liquid interface
T1 sequence (P37088 1-669): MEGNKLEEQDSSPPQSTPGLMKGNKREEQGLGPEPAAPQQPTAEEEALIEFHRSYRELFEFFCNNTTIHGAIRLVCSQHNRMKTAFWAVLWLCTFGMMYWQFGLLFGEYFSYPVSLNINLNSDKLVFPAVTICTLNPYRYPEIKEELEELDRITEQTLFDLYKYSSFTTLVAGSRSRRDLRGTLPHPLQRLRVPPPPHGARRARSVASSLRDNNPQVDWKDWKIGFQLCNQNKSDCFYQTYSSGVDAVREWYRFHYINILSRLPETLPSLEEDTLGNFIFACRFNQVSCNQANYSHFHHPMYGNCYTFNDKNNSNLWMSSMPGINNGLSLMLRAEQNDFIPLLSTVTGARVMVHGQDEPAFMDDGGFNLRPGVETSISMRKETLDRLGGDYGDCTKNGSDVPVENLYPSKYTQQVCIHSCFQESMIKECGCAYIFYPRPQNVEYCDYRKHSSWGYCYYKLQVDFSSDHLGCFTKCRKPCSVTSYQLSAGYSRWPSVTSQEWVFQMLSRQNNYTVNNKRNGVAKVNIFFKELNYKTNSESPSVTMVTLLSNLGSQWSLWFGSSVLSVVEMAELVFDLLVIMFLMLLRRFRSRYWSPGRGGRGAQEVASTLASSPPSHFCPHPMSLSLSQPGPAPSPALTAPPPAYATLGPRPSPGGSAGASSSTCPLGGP
T1 sequence (P51168 1-640): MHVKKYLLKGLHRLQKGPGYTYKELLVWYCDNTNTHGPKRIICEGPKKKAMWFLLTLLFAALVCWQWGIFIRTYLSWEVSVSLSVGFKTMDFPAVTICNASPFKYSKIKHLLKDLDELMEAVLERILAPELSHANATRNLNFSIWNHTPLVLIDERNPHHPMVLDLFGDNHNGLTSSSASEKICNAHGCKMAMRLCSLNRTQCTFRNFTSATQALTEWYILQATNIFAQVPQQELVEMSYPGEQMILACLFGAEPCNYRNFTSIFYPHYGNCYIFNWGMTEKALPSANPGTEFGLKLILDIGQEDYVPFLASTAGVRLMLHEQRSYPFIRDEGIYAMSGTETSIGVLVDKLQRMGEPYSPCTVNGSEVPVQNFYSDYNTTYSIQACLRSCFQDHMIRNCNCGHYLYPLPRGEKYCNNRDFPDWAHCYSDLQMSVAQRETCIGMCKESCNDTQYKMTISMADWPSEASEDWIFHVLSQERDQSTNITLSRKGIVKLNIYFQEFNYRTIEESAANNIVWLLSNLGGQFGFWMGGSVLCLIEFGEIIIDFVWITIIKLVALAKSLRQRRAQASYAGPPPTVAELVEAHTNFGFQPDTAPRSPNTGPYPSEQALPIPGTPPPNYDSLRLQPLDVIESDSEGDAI
T1 sequence (P51170 1-649): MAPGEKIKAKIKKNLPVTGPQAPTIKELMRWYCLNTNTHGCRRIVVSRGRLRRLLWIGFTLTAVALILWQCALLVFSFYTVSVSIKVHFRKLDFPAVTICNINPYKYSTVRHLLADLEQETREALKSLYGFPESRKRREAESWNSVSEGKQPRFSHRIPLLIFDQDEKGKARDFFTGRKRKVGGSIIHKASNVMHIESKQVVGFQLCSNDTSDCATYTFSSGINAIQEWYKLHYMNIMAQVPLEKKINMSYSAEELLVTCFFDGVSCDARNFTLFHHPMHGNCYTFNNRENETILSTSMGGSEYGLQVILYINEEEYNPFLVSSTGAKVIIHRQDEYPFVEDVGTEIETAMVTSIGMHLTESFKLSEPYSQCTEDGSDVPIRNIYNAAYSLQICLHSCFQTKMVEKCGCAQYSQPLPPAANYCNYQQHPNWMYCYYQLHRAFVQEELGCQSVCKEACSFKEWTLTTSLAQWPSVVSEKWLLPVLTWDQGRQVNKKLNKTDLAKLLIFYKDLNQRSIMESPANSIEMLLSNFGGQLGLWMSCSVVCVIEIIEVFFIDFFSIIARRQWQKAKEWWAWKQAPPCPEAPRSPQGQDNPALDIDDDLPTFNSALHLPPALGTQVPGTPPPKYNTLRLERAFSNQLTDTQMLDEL
Assay: Short circuit current assay to determine ENaC blocker potency in human bronchial epithelial cells
Type: cell-based
Details: 50% inhibition of the total amiloride-sensitive short-circuit current (ISC) in human bronchial epithelial cells (HBECs) at air-liquid interface; apical addition; read-out: Averages · ENaC IC50 (nM) Avg
Method: Example 6 Short circuit current assay to determine ENaC blocker potency in human bronchial epithelial cells
Cell culture Human bronchial epithelial cells (HBECs) (Lonza, UK) were cultured using a modification of the method described by Coote et al, (2008). Cells were seeded into plastic T-75 flasks and grown in Bronchial Epithelial Cell Growth Medium (BEGM) (Lonza, UK) supplemented with bovine pituitary extract (52 ng/mL), hydrocortisone (0.5 μg/mL), human recombinant Epidermal Growth Factor (0.5 ng/mL), epinephrine (0.5 ng/mL), transferrin (10 ng/mL), insulin (5 ng/mL), retinoic acid (0.1 ng/mL), triiodothyronine (6.5 ng/mL), gentamycin (50 μg/mL) and amphotericin-B (50 ng/mL). Medium was changed every 48 hours until cells were 90% confluent. Cells were then passaged and seeded (8.25×10^5 cells/insert) onto polycarbonate Snapwell™ inserts (Costar, UK) in differentiation media containing 50% DMEM in BGEM with the same supplements as above but without triiodothyronine and a final retinoic acid concentration of 50 nM (all-trans retinoic acid; Sigma-Aldrich, UK). Cells were maintained submerged for the first 7 days in culture after which time they were exposed to an apical air interface for the remainder of the culture period. From the first day of establishment of an ALI, HBEC were fed with a DMEM:HAMS F-12 (1:1) media containing 2% Ultroser G (Pall BioSepra, France) with gentamycin (50 μg/mL) and amphotericin B (50 ng/mL). Cells were used for short-circuit current assay between days 14-21 after the establishment of the ALI. At all stages of culture, cells were maintained at 37° C. in 5% CO2 in an air incubator.
Short-Circuit Current (ISC) Measurements
Snapwell inserts were mounted in Costar Vertical Diffusion Chambers (Costar, UK) and were bathed with continuously gassed Ringer solution (5% CO2 in O2; pH 7.4) maintained at 37° C. containing (in mM): 120 NaCl, 25 NaHCO3, 3.3 KH2PO4, 0.8 K2HPO4, 1.2 CaCl2, 1.2 MgCl2 and 10 glucose. The solution osmolarity was always between 280-300 mOsm/kg H2O for all physiological salt solutions used. Cells were voltage clamped to 0 mV (model EVC4000, WPI). Transepithelial resistance (RT) was measured by applying a 2 mV pulse at 30 s intervals and calculating RT by Ohm's law. Data were recorded using a PowerLab workstation (ADInstruments, UK).
ENaC blocker compounds were added to the apical chamber from a 1000-fold stock solution (prepared in DMSO) to achieve a cumulative concentration response in terms of the inhibition of the basal ISC. At the completion of the concentration response, a supra-maximal concentration of amiloride (10 μM) was added. The concentration of test compound that induced a 50% inhibition of the total amiloride-sensitive ISC (IC50) was calculated using GraphPad Prism v6.05. […]

| SMILES | IC50 [nM] |
| --- | --- |
| CCn1c(CNC(=O)c2nc3cn[nH]c3nc2N)[n+](CC)c2ccc(C(=O)O)cc21 [Example 3] | 106 |
| CCn1c(CNC(=O)c2nc3c(C)n[nH]c3nc2N)[n+](CC)c2ccc(OC)cc21 [Example 1, 2-[({6-amino-3-methyl-1H-pyrazolo[3,4-b]pyrazin-5-yl}formamido)methyl]-1,3-diethyl-6-methoxy-1H-1,3-benzodiazol-3-ium trifluoroacetate] | 2 |
| CCn1c(CNC(=O)c2nc3cn[nH]c3nc2N)[n+](CC)c2ccc(C(=O)N3CCC(N(C[C@H](O)[C@@H](O)[C@H](O)[C@H](O)CO)C[C@H](O)[C@@H](O)[C@H](O)[C@H](O)CO)CC3)cc21 [Example 4, 2-[({6-amino-1H-pyrazolo[3,4-b]pyrazin-5-yl}formamido)methyl]-6-(4-{bis[(2S,3R,4R,5R)-2,3,4,5,6-pentahydroxyhexyl]amino}piperidine-1-carbonyl)-1,3-diethyl-1H-1,3-benzodiazol-3-ium trifluoroacetic acid trifluoroacetate] | 47 |
| CCn1c(CNC(=O)c2nc3c(C)n[nH]c3nc2N)[n+](CC)c2ccc(C(=O)O)cc21 [Example 2, 2-[({6-amino-3-methyl-1H-pyrazolo[3,4-b]pyrazin-5-yl}formamido)methyl]-6-carboxy-1,3-diethyl-1H-1,3-benzodiazol-3-ium formate] | 91.5 |
